{"source": "paper PMC9080489", "about": "“Synthesis and biological evaluation of 2-aryl-benzimidazole derivatives of dehydroabietic acid as novel tubulin polymerization inhibitors” (RSC Advances, 2018)", "key": {"[1]": {"system": "human cervical carcinoma cell line (HeLa)", "test": "MTT cytotoxic assay, HeLa", "format": "cell-based", "settings": "MTT, 48 h exposure, read-out: IC50 HeLa", "description": "The in vitro antiproliferative activity of DAA derivatives (1–5, 6a–k, 7a–k) were evaluated by MTT assay against human hepatocarcinoma cell line (SMMC-7721), human breast cancer cell line (MDA-MB-231), human cervical carcinoma cell line (HeLa), mouse colon cancer cell line (CT-26) and human normal hepatocyte cell line (QSG-7701). Nocodazole was co-assayed as the positive control and DMEM culture medium containing 0.1% DMSO was used as negative control. The results of the tested compounds expressed as IC50 values (concentration required to inhibit tumor cell proliferation by 50%) were presented in Table 1.\nThe human hepatocarcinoma cell line (SMMC-7721), human breast cancer cell line (MDA-MB-231), human cervical carcinoma cell line (HeLa), mouse colon cancer cell line (CT-26) and human normal hepatocyte cells (QSG-7701) used in this study were all obtained from Keygene Biotech., China. These cell lines were maintained in DMEM medium supplemented with 10% heat-inactivated fetal bovine serum in a humidified atmosphere of 5% CO2 at 37 °C.\nThe in vitro cytotoxic activities of the benzimidazole derivatives of dehydroabietic acid were evaluated against tested cell lines via the MTT colorimetric method. Briefly, different tumor cells were grown in DMEM medium supplemented with 10% fetal bovine serum, penicillin (100 U mL^−1), and streptomycin (50 μg mL^−1). Cells were harvested at log phase of growth and seeded in 96-well plates (100 μL per well at a density of 2 × 10^5 cells mL^−1). After 24 h incubation at 37 °C and 5% CO2 to allow cell attachment, cultures were exposed to various concentrations of the isolated compounds for 48 h. Finally, MTT solution (2.5 mg mL^−1 in PBS) was added (40 μL per well). Plates were further incubated for 4 h at 37 °C, and the formazan crystals formed were dissolved by adding 150 μL per well of DMSO. Absorption at 570 nm was measured with an ELISA plate reader. The results were expressed as IC50 values with standard deviations, which was defined as the concentration at which 50% survival of cells was discerned. Nocodazole was co-assayed as positive control."}, "[2]": {"system": "intracellular microtubule system of SMMC-7721 cells", "test": "Immunofluorescence staining of microtubule network", "format": "cell-based, human", "settings": "24 h (Fig. 4 legend)", "description": "Since the tubulin polymerization inhibitory effect of compound 6j has been verified, we subsequently performed the immunofluorescent staining assay to observe its effect on the intracellular microtubule system of SMMC-7721 cells.\n[…] After being washed with phosphate buffer solution (PBS) and fixed in 4% paraformaldehyde for 15 min, the cells were permeabilized with 0.5% Triton X-100 for 15 min and blocked for 30 min with 10% goat serum. Then, the cells were incubated with mouse anti-tubulin antibody (ZSGB-Bio, China) at 4 °C overnight and incubated with goat anti-mouse IgG/Alexa-Fluor 488 antibody (ZSGB-Bio, China) at room temperature for 1 h. After the nuclei were stained with Hoechst 33258 (Beyotime Biotech., China) in the dark at room temperature for 30 min, the samples were immediately visualized on a Zeiss LSM 570 laser scanning confocal microscope (Carl Zeiss, Germany)."}}}
{"compound": "COC(=O)[C@]1(C)CCC[C@]2(C)c3cc(Br)c4nc(-c5ccc6[nH]ccc6c5)[nH]c4c3CCC12", "note": "(stereo partly drawn) [Compound 6j, Methyl 2′-(1H-indol-5-yl)-12-bromo-13,14-imidazolyl-deisopropyl-dehydroabietate]", "values": [{"measurement": "IC50", "setting": "[1]", "value": "230 ± 50", "unit": "nM"}, {"measurement": "effect on the microtubule network", "setting": "[2]; 0.5 μM", "value": "most microtubule networks disappeared"}, {"measurement": "effect on the microtubule network", "setting": "[2]; 0.1–0.5 μM", "value": "the meshy microtubule networks shrank around the nuclei in a dose-dependent manner"}]}
